What was measured:
hASK1 = hASK1 (Homo sapiens (Human), UniProt Q99683); assay: ASK1 biochemical assay (IMAP technology); details: 150 μM ATP, 6 nM hASK1
Source text: IMAP® technology provides a homogeneous assay applicable to a wide variety of kinases, phosphatases, and phosphodiesterases without regard for substrate peptide sequence. The assay is a simple mix-and-read procedure allowing accurate determination of enzyme activity. Based on the specific, high-affinity interaction of phospho groups with trivalent metal-containing nanoparticles (beads), IMAP is a generic, non-antibody-based platform to assess kinase, phosphatase, and phosphodiesterase activity. An enzyme reaction is performed using fluorescently labeled substrate. Addition of the IMAP Binding System stops the enzyme reaction and initiates binding of the beads to phosphorylated substrates. Binding of the substrate to the beads, which correlates to enzyme activity, can be detected using either FP or TR-FRET as a readout.
Apoptosis Signal-regulating Kinase (ASK1), also known as MAP3K5, is a member of the mitogen-activated protein kinase kinase kinase (MAP3K) family of kinases. It activates the Jnk and p38 pathways through the MAP2Ks MKK4/7 and MKK3/6 (respectively). This ASK1 IMAP assay uses the following IMAP peptide: RP7140-T2 (5TAMRA-GTFRAAIRRLAARRR-OH, SEQ ID NO: 1). The assay has been configured to run at Km for ATP ([…]) so that it will be sensitive to ATP-competitive inhibitors. The final assay conditions are […], 1 mM DTT, 200 nM peptide and 6 nM ASK1 (total protein). The binding reagent is made up in 100% A at a final dilution of 1:200.
KIT IMAP FP, Cat. No. R8127; Reaction Buffer-Tween (5× conc.), Molecular Devices, Cat. No. R7436; Diluted 1:5 with H2O and containing DTT (1 mM from 1M stock); Progressive Binding Buffer (PBB) A (5× conc.), Molecular Devices, Cat. No. R7282; Progressive Binding Reagent (PB Reagent), Molecular Devices, Cat. No. R7284; Enzyme Solution (containing 2× Ask1 in Reaction buffer); Substrate Solution (containing 2× peptide substrate in Reaction buffer, and 2×150 μM ATP in Reaction buffer); Bead Buffer (Progressive Binding Buffer A diluted 1:5 with H2O); Bead Solution (Bead Buffer containing 1:200 Progressive Binding Reagent (2×))
100 nL of test compound in 100% DMSO was added to 384-well plates. For a dose response experiment a 1 in 4 dilution of compound (25 μM top final concentration) was used. 3 μL of hASK1 (6 nM), hASK2 (25 nM) or rASK1 (15 nM) was added to each well except in the control well to which 3 μL buffer was added. 3 μL of substrate solution was added to each well and the plates were incubated for 4 h at room temperature. After which time 6 μL of IMAP™ Bead Solution (Progressive Binding Buffer A+PB Reagent; final dilution 1:100) was added to each well and spun for 1 minute at 1000 rpm. The plates were then incubated for 2 h at room temperature after which time the plates were read on a Perkin Elmer EnVision plate reader.
Calculation of IC50 data, curves and QC analysis was made by using Excel tools and GraphPadPrism software, v. 5.03. Briefly, individual concentration-effect curves are generated by plotting the logarithm of the tested concentration of tested compounds (X) vs. corresponding percent inhibition values (Y) using least squares (ordinary) fit. Up to ¼ points from high/low controls are allowed to be excluded, but only if values are >Avg.±1*SD. Fitting equation used for IC50 calculation=log(inhibitor) vs. response−Variable slope (four parameters). Calculated results: Calc 1: mP value for FP measurement=1000*(S−G*P)/(S+G*P) where S=<detector 2 or FP-BodipyTAMRA_Ex531-Em579-optimized(1) channel 2>P=<detector 1 or FP-BodipyTAMRA_Ex531-Em579-optimized(1) channel 1>G=G-factor. Gain=100. Top constrain is used only if top values are not correctly calculated.
Minimum constrained if less than −30% I or greater than 30% I. Maximum constrained if less than 70% I or greater than 130% I. Z′-Factor Target>0.4. Hill Slope range 0.5 to 5.

[1] = molecular target: Full length human ASK1 protein (Homo sapiens (Human), UniProt Q99683); assay: ASK1 biochemical assay (AlphaScreen technology, MKK7 phosphorylation); details: 150 μM ATP, 400 nM MKK7, 0.8 nM ASK1
Source text: ASK1 and ASK2 biochemical activities were also quantified using AlphaScreen technology which measures the degree of phosphorylation of a protein substrate (MKK7). AlphaScreen technology is based on the binding of a substrate to two types of beads, acceptor and donor. Binding to one bead is through the tag of the substrate protein. Binding of the second bead is through phosphospecific binding of antibody to the phosphosite of the substrate. This forms a sandwich, with the acceptor and donor beads in close proximity. When the donor beads are excited by light in the 680 nm range, a singlet oxygen is released and causes emission of light from the acceptor in the 620 nm range which can be detected using a suitable plate reader.
The phosphorylation site on MKK7 (Ser271/Thr275) is then recognised by a phosphospecific antibody. The phosphospecific antibody is bound to the AlphaScreen acceptor beads through a Protein-A interaction. Phosphorylation of MKK7 by ASK1 or ASK2 subsequently facilitates the bringing together of the donor and acceptor beads into close proximity whereupon the transfer of the singlet oxygen leads to the generation of the AlphaScreen signal.
The assay was configured to run using the following conditions (final concentrations): 150 μM ATP; 400 nM MKK7; 0.8 nM ASK1 and 2 nM ASK2.
100 nL of test compound (starting concentration 6 μM, 11 concentrations with 3 fold serial dilutions) in 100% DMSO was added to low volume 384 well plates. 2.5 μl of ASK1 or ASK2 was added to each well except in the control wells to which 2.5 μl buffer was added. 2.5 μl of MKK7 solution was added to all wells. The plate was incubated for 60 minutes at room temperature. Protein-A acceptor beads and phospho-specific antibody were incubated for 30 minutes and then 2.5 μl of Protein-A acceptor beads/phospho-specific antibody mix (2.5 μg/ml acceptor beads final concentration and 1/800 antibody final dilution) was added to each well. The plate was incubated for 30 minutes at room temperature and then 2.5 μl of GSH donor beads (10 μg/ml […] final concentration) was added to each well. The plate was incubated for a further 60 minutes at room temperature, following which the plate was read on a Perkin Elmer Enspire plate reader.
Calculation of IC50 data, curves and QC analysis were made by using Excel tools and GraphPadPrism software, v. 5.03. Briefly, individual concentration-effect curves were generated by plotting the logarithm of the tested concentration of tested compounds (X) vs. corresponding percent inhibition values (Y) using least squares (ordinary) fit. Fitting equation used for IC50 calculation=log(inhibitor) vs. response−Variable slope (four parameters).

Full length human ASK1 protein, sequence (Q99683 whole entry): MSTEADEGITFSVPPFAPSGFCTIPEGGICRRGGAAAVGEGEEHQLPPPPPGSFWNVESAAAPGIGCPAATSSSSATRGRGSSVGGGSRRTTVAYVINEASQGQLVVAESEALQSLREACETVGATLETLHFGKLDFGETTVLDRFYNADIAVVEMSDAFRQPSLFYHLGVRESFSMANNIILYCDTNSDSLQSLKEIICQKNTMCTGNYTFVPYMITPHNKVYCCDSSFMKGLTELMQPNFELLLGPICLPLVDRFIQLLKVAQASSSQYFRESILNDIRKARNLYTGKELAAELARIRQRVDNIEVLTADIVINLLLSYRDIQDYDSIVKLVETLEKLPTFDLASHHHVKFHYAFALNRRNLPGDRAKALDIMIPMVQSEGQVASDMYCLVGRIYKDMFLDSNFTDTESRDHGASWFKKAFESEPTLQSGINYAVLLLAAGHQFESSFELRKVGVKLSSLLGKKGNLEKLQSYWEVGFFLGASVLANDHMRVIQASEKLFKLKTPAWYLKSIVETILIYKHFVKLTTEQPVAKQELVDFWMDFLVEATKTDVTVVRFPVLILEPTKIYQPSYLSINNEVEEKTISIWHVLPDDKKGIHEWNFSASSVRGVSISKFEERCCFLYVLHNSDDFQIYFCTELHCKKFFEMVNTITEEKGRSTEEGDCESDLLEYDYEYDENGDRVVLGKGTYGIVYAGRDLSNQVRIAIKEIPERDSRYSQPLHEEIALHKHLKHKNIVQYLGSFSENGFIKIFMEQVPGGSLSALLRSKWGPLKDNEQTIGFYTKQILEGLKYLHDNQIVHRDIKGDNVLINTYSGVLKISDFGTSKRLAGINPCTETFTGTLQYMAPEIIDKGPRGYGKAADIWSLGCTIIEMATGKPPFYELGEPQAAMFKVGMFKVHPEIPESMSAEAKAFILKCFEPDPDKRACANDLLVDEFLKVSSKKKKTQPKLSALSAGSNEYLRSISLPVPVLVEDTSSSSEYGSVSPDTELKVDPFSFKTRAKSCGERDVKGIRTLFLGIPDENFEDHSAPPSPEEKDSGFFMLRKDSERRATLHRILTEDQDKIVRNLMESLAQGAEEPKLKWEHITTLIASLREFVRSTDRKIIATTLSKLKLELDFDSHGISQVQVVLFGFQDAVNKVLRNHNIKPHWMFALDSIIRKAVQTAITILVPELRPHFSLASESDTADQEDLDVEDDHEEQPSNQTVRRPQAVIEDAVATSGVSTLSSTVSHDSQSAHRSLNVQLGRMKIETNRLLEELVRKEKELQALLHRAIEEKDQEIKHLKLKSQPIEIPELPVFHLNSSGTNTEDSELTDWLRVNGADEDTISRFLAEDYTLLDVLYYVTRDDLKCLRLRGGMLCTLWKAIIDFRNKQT
hASK1, sequence (Q99683 whole entry): as above

Row | SMILES | Inhibition (pIC50) ASK1 (hASK1) | Inhibition (pIC50) ASK1 [1]
1 | Cc1c[nH]c2ncnc(N3CCC(NC(=O)c4cc(N)ncc4Cl)CC3)c12 [Compound 3, 2-amino-5-chloro-N-[1-(5-methyl-7H-pyrrolo[2,3-d]pyrimidin-4-yl)-4-piperidyl]-pyridine-4-carboxamide] | 8.05/— | 8.7
2 | Cc1c[nH]c2ncnc(N3CCC(NC(=O)c4cc(N)ncc4F)CC3)c12 [Compound 1, 2-amino-5-fluoro-N-[1-(5-methyl-7H-pyrrolo[2,3-d]pyrimidin-4-yl)-4-piperidyl]pyridine-4-carboxamide] | 8.24 | 8.72
3 | Nc1cc(C(=O)NC2CCN(c3ncnc4[nH]cc(Cl)c34)CC2)ccn1 [Compound 4, 2-amino-N-[1-(5-chloro-7H-pyrrolo[2,3-d]pyrimidin-4-yl)-4-piperidyl]pyridine-4-carboxamide] | 8.46 | 9.4
4 | Cc1cnc(N)cc1C(=O)NC1CCN(c2ncnc3[nH]cc(C)c23)CC1 [Compound 2, 2-amino-5-methyl-N-[1-(5-methyl-7H-pyrrolo[2,3-d]pyrimidin-4-yl)-4-piperidyl]pyridine-4-carboxamide] | 8.17 | 8.9/—

Second part, the molecule after the results:

Row | Inhibition (pIC50) ASK1 (hASK1) | Inhibition (pIC50) ASK1 [1] | SMILES
5 | 8.43/— | 8.8/— | Nc1cc(C(=O)NC2CCN(c3ncnc4[nH]cc(Cl)c34)CC2)c(F)cn1 [Compound 5, 2-amino-N-[1-(5-chloro-7H-pyrrolo[2,3-d]pyrimidin-4-yl)-4-piperidyl]-5-fluoro-pyridine-4-carboxamide]
6 | 8.98/— | 8.98/—^ | Cc1c[nH]c2ncc(C#N)c(N3CCC(NC(=O)c4cc(N)ncc4F)CC3)c12 [Compound 6, 2-amino-N-[1-(5-cyano-3-methyl-1H-pyrrolo[2,3-b]pyridin-4-yl)-4-piperidyl]-5-fluoro-pyridine-4-carboxamide]
7 | 8.24/— | 8.24/—^ | Nc1cc(C(=O)NC2CCN(c3ccnc4[nH]cc(Cl)c34)CC2)c(F)cn1 [Compound 7, 2-amino-N-[1-(3-chloro-1H-pyrrolo[2,3-b]pyridin-4-yl)-4-piperidyl]-5-fluoro-pyridine-4-carboxamide]

From patent US11136325B2, “Pyrrolopyrimidine and pyrrolopyridine derivatives” (GALAPAGOS NV, priority 2017, dated 2021)
